In publication PMC9938908, “Unraveling topoisomerase IA gate dynamics in presence of PPEF and its preclinical evaluation against multidrug-resistant pathogens” (Communications Biology, 2023):

Assays:
Format in all cases: biochemical
[1] = target: T1, E. coli topoisomerase III (EcTopoIII) (Escherichia coli, UniProt P14294); test: DNA relaxation assay with pHOT-1 plasmid, agarose gel
T1 construct: gene topB; N-terminal His-tag, pET28a(+), 1962 bp, 73 kDa

[2] = target: T2, S. aureus topoisomerase IA (SaTopoIA) (Staphylococcus aureus, UniProt Q5HGI2); test: DNA relaxation assay with pHOT-1 plasmid; also ssDNA religation and plasmid cleavage assays
T2 construct: gene topA; N-terminal His-tag, pET28a(+), 2070 bp, 79 kDa
T2 sequence (Q5HGI2 1-689): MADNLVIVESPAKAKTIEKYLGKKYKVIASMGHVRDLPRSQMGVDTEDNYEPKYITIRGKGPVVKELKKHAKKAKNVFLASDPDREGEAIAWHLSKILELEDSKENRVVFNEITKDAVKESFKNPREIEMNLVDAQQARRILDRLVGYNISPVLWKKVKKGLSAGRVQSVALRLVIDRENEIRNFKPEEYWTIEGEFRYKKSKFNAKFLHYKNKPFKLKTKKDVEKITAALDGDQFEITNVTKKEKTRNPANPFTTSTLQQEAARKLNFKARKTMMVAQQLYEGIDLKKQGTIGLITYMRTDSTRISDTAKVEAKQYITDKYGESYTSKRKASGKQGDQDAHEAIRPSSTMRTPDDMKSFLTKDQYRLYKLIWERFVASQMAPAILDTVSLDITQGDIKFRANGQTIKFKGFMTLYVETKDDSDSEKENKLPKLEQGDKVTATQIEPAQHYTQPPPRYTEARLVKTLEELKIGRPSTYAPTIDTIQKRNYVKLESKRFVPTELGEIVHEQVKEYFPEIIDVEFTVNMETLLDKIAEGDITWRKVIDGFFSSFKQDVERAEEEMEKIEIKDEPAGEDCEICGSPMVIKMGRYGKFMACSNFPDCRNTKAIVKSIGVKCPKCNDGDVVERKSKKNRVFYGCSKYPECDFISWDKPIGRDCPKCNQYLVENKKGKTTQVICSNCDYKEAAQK

[3] = target: T3, A. baumannii topoisomerase IA (AbTopoIA) (Acinetobacter baumannii, UniProt A0ABX6CBM5); test: DNA relaxation assay with pHOT-1 plasmid, agarose gel
T3 construct: gene topA; N-terminal His-tag, pET28a(+), 2637 bp, 98 kDa
T3 sequence (A0ABX6CBM5 1-878): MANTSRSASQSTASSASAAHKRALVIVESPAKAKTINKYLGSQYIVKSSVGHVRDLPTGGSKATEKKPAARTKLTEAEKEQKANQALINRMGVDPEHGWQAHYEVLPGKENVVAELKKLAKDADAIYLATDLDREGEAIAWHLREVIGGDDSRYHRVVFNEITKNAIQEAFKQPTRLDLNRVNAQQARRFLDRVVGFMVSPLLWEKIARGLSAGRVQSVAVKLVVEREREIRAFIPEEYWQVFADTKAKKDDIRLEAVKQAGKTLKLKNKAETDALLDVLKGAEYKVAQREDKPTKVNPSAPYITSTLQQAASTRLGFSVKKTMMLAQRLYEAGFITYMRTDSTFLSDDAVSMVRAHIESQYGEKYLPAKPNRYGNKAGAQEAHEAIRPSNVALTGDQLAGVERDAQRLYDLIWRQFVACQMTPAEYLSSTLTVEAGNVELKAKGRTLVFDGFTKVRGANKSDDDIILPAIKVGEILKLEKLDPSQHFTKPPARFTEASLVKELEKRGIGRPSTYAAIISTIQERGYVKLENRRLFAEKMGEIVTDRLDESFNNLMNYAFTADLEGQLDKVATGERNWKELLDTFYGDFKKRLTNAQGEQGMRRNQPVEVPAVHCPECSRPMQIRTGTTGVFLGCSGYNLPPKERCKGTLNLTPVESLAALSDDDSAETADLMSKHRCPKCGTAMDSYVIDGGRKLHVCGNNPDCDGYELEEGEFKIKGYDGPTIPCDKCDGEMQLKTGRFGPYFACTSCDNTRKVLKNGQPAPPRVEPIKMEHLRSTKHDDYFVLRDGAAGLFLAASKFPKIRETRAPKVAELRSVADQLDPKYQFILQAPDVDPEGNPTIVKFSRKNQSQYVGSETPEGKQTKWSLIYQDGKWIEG

[4] = target: T4, E. coli topoisomerase IA (EcTopoIA) (Escherichia coli, UniProt P06612); test: as above
T4 construct: gene topA; expressed in pET28a(+), purified
T4 sequence (P06612 whole entry): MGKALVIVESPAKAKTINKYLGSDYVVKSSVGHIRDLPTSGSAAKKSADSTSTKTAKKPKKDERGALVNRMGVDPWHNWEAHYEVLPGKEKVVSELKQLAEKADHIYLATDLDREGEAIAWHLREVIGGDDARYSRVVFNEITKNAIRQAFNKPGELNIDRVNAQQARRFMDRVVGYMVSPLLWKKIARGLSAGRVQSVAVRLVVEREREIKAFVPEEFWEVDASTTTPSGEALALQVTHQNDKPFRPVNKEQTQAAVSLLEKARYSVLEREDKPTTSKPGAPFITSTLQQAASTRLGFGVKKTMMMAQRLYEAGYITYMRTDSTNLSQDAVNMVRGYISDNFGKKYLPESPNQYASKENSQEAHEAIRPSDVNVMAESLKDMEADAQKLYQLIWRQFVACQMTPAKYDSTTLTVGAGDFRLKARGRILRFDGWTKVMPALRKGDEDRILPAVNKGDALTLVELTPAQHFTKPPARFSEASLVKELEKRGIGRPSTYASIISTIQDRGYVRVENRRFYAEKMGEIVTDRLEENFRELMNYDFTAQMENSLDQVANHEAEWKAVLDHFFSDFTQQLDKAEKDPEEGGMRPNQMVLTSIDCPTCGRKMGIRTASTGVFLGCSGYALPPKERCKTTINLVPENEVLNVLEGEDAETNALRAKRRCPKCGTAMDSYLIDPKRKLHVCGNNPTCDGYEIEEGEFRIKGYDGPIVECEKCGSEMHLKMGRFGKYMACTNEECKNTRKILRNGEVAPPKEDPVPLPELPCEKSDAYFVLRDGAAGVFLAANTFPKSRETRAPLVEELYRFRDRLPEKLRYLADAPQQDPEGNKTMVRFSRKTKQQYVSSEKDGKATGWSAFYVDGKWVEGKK

T1 sequence (P14294 whole entry): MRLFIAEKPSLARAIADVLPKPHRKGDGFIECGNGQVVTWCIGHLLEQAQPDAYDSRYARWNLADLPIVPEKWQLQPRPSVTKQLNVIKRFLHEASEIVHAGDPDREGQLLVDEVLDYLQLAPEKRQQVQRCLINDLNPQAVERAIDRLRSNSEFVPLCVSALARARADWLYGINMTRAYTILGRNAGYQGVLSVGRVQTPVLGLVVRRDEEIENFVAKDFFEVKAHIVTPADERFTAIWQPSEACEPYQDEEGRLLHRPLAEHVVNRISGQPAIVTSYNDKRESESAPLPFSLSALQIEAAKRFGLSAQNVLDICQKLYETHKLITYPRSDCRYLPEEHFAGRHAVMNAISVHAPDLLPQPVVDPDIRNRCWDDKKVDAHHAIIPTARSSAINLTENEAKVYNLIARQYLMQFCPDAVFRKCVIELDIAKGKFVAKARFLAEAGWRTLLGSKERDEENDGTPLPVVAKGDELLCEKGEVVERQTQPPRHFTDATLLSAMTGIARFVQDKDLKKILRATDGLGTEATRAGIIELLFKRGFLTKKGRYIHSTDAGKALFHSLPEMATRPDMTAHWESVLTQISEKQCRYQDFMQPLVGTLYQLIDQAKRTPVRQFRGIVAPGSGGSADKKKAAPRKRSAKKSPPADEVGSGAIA

| SMILES | IC50 [1] | IC50 [2] | IC50 [3] | IC50 [4] |
| --- | --- | --- | --- | --- |
| CCCCN1CCN(c2ccc3[nH]c(-c4ccc5[nH]c(-c6ccc(OC)c(OC)c6)nc5c4)nc3c2)CC1 [BPVF, 5-(4-butylpiperazin-1-yl)-2′-(3,4-dimethoxyphenyl)-1H,1′H-2,5′ bibenzo[d]imidazole] | 1.96 µM | 41.4 µM |  |  |
| CCCN1CCN(c2ccc3nc(-c4ccc5nc(-c6ccc(OCC)cc6)[nH]c5c4)[nH]c3c2)CC1 [PPEF, 2′-(4-ethoxyphenyl)-5-(4-propylpiperazin-1-yl)-1H,1′H-2,5′-bibenzo(d)imidazole] | 1.58 µM | 15.5 µM | 9.48 µM | 2.71 µM |
